Test [1] deals with T1, Adenosine A2A receptor (Homo sapiens, UniProt P29274). Briefly: Adenosine A2A receptor competitive binding assay (Tag-lite HTRF). The conditions noted are these: Tag-lite adenosine A2A receptor ligand binding, 2 h room temperature; values separated by / are repeat determinations. The essentials:
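Tag-lite HTRF competition: donor-labelled cells expressing human A2A were mixed with serially diluted compounds (DMSO 0.6% in dilutions) and red fluorescent A2A antagonist ligand (60 nM stock). Incubated 2 h at room temperature before HTRF readout.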
For orientation: In TR-FRET formats the signal depends on donor and acceptor labels being close together.

Test [2] addresses T1, Adenosine A2A receptor. The experiment in a line: cAMP assay in 293A cells stably expressing the adenosine A2A receptor (CGS21680 stimulation, HTRF). The class given is cell-based. Set-up: expressed in transfected cells; host or cells: 293A cells (Invitrogen, Cat# R705-07) infected with A2A-expressing lentivirus (custom packaged by Biosettia), puromycin selected. Conditions: 293A-A2AR cells, 0.1% BSA, values separated by / are repeat determinations. For orientation: Changes in cAMP serve as a functional read-out for many G protein-coupled receptors.

Setting [3] is: 8 nM CGS, read-out: cAMP (nM) 0.1% BSA, 8 nM CGS.
The mark [4] stands for this setting: 1 uM CGS, read-out: cAMP (nM) 0.1% BSA, 1 uM CGS.

Values joined by “and” are separate entries in the source; they are usually repeats but may differ in a detail not shown here. Equal entries are not always repeated.

T1 sequence (P29274 whole entry): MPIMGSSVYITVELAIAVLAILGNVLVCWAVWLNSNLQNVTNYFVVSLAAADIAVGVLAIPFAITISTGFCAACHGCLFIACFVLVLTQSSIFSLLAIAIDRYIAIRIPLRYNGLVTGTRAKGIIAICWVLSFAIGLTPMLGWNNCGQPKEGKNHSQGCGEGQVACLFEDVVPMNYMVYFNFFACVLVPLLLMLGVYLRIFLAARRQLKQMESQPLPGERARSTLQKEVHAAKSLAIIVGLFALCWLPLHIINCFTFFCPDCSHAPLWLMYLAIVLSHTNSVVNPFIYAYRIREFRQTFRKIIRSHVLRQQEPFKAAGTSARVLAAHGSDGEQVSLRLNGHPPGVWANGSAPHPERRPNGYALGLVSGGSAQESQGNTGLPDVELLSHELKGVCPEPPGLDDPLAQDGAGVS

As for `CCN(CCOc1nc(N)nc(-c2ccc(F)cc2)c1-c1cc(C)nc(C(F)F)c1)c1ncccn1` [Example 146, 5-(2-(difluoromethyl)-6-methylpyridin-4-yl)-4-(2-(ethyl(pyrimidin-2-yl)amino)ethoxy)-6-(4-fluorophenyl)pyrimidin-2-amine], the IC50 on Adenosine A2A receptor [1] came out at 4 nM; at Adenosine A2A receptor [2] (setting [3]) it was 5.6 nM.

Regarding `Cc1cc(-c2c(OCCN(C)c3nccc(N)n3)nc(N)nc2-c2ccc(F)cc2)cc(C(F)F)n1` [Example 147, N^2-(2-((2-amino-5-(2-(difluoromethyl)-6-methylpyridin-4-yl)-6-(4-fluorophenyl)pyrimidin-4-yl)oxy)ethyl)-N^2-methylpyrimidine-2,4-diamine], the results for the IC50 on Adenosine A2A receptor [1] and at Adenosine A2A receptor [2] (setting [4]) were 13 nM and 5460 nM, respectively.

With `Cc1cc(-c2c(OCCN(C)c3cccnn3)nc(N)nc2-c2ccc(F)cc2)cc(C(F)F)n1` [Example 150, N-(2-((2-amino-5-(2-(difluoromethyl)-6-methylpyridin-4-yl)-6-(4-fluorophenyl)pyrimidin-4-yl)oxy)ethyl)-N-methylpyridazin-3-amine], the IC50 was 2.7 nM and 3.2 nM on Adenosine A2A receptor [1]; 98 nM at Adenosine A2A receptor [2] (setting [4]).

Turning to `Cc1cc(-c2c(OCCN(C)c3cnccn3)nc(N)nc2-c2ccc(F)cc2)cc(C(F)F)n1` [Example 152, 5-(2-(difluoromethyl)-6-methylpyridin-4-yl)-4-(4-fluorophenyl)-6-(2-(methyl(pyrazin-2-yl)amino)ethoxy)pyrimidin-2-amine], the values for the IC50 at Adenosine A2A receptor [1] and on Adenosine A2A receptor [2] (setting [4]) were 5.1 nM and 351 nM, respectively.

In the case of `Cc1cc(-c2c(OCCN(CCO)c3ccccn3)nc(N)nc2-c2ccc(F)cc2)cc(C(F)F)n1` [Example 153, 2-((2-((2-amino-5-(2-(difluoromethyl)-6-methylpyridin-4-yl)-6-(4-fluorophenyl)pyrimidin-4-yl)oxy)ethyl)(pyridin-2-yl)amino)ethan-1-ol], the IC50 on Adenosine A2A receptor [1] was 8.9 nM; at Adenosine A2A receptor [2] (setting [3]) it was 4.1 nM.

`Cc1cc(-c2c(OCCN(C)c3cc(OCCO)ccn3)nc(N)nc2-c2ccc(F)cc2)cc(C(F)F)n1` [Example 155, 2-((2-((2-((2-amino-5-(2-(difluoromethyl)-6-methylpyridin-4-yl)-6-(4-fluorophenyl)pyrimidin-4-yl)oxy)ethyl)(methyl)amino)pyridin-4-yl)oxy)ethan-1-ol]: the IC50 is 24 nM at Adenosine A2A receptor [1] and 5.4 nM on Adenosine A2A receptor [2] (setting [3]).

Take `Cc1cc(-c2c(OCCN(C)c3ccc(C#N)cn3)nc(N)nc2-c2ccc(F)cc2)cc(C(F)F)n1` [Example 156, 6-((2-((2-amino-5-(2-(difluoromethyl)-6-methylpyridin-4-yl)-6-(4-fluorophenyl)pyrimidin-4-yl)oxy)ethyl)(methyl)amino)nicotinonitrile]: the values for the IC50 at Adenosine A2A receptor [1] and on Adenosine A2A receptor [2] (setting [3]) were 84 nM and 57 nM, respectively.

For the compound `Cc1cc(-c2c(OCCN(C)c3ccc(S(C)(=O)=O)cn3)nc(N)nc2-c2ccc(F)cc2)cc(C(F)F)n1` [Example 157, 5-(2-(difluoromethyl)-6-methylpyridin-4-yl)-4-(4-fluorophenyl)-6-(2-(methyl(5-(methylsulfonyl)pyridin-2-yl)amino)ethoxy)pyrimidin-2-amine], the IC50 is 79 nM on Adenosine A2A receptor [1] and 52 nM at Adenosine A2A receptor [2] (setting [3]).

On to `COC(=O)NCC1(COc2nc(N)nc(-c3ccc(F)cc3)c2-c2cc(C)nc(C(F)F)c2)CCOCC1` [Example 158, methyl ((4-(((2-amino-5-(2-(difluoromethyl)-6-methylpyridin-4-yl)-6-(4-fluorophenyl)pyrimidin-4-yl)oxy)methyl)tetrahydro-2H-pyran-4-yl)methyl)carbamate], for which the IC50 at Adenosine A2A receptor [1] came to 627 nM; on Adenosine A2A receptor [2] (setting [3]) it was 231 nM.

With `Cc1cc(-c2c(OCC(=O)NCC3CCOCC3)nc(N)nc2-c2ccc(F)cc2)cc(C(F)F)n1` [Example 160, 2-((2-amino-5-(2-(difluoromethyl)-6-methylpyridin-4-yl)-6-(4-fluorophenyl)pyrimidin-4-yl)oxy)-N-((tetrahydro-2H-pyran-4-yl)methyl)acetamide], the values for the IC50 on Adenosine A2A receptor [1] and on Adenosine A2A receptor [2] (setting [3]) were 336 nM and 184 nM, respectively.

Regarding `Cc1cc(-c2c(OCC(=O)NCC(F)(F)F)nc(N)nc2-c2ccc(F)cc2)cc(C(F)F)n1` [Example 161, 2-((2-amino-5-(2-(difluoromethyl)-6-methylpyridin-4-yl)-6-(4-fluorophenyl)pyrimidin-4-yl)oxy)-N-(2,2,2-trifluoroethyl)acetamide], the IC50 at Adenosine A2A receptor [1] amounted to 44 nM; at Adenosine A2A receptor [2] (setting [3]) it was 14 nM.

Take `Cc1cc(-c2c(OCC(=O)NCC(C)(F)F)nc(N)nc2-c2ccc(F)cc2)cc(C(F)F)n1` [Example 162, 2-((2-amino-5-(2-(difluoromethyl)-6-methylpyridin-4-yl)-6-(4-fluorophenyl)pyrimidin-4-yl)oxy)-N-(2,2-difluoropropyl)acetamide]: the IC50 at Adenosine A2A receptor [1] is 21.1 nM; on Adenosine A2A receptor [2] (setting [3]), 8.4 nM.

Consider `Cc1cc(-c2c(OCCCS(C)(=N)=O)nc(N)nc2-c2ccc(F)cc2)cc(C(F)F)n1` (stereo not drawn) [Example 169, (3-((2-amino-5-(2-(difluoromethyl)-6-methylpyridin-4-yl)-6-(4-fluorophenyl)pyrimidin-4-yl)oxy)propyl)(imino)(methyl)-λ^6-sulfanone], for which the IC50 at Adenosine A2A receptor [1] came to 9.7 nM; on Adenosine A2A receptor [2] (setting [3]) it was 7.1 nM.

For `Cc1cc(-c2c(OCc3nccn3C3CC3)nc(N)nc2-c2ccc(F)cc2)cc(C(F)F)n1` [Example 170, 4-((1-cyclopropyl-1H-imidazol-2-yl)methoxy)-5-(2-(difluoromethyl)-6-methylpyridin-4-yl)-6-(4-fluorophenyl)pyrimidin-2-amine], the IC50 on Adenosine A2A receptor [1] was 1.1 nM (2×) and 2.9 nM; on Adenosine A2A receptor [2] (setting [3]), 1.1 nM and 1.6 nM; on Adenosine A2A receptor [2] (setting [4]) it was 33 nM.

`Cc1cc(-c2c(OCc3nccn3C3COC3)nc(N)nc2-c2ccc(F)cc2)cc(C(F)F)n1` [Example 171, 5-(2-(difluoromethyl)-6-methylpyridin-4-yl)-4-(4-fluorophenyl)-6-((1-(oxetan-3-yl)-1H-imidazol-2-yl)methoxy)pyrimidin-2-amine]: the IC50 on Adenosine A2A receptor [1] worked out at 3.6 nM; at Adenosine A2A receptor [2] (setting [3]), 4.1 nM.

For `Cc1cc(-c2c(OCc3nccn3CC(C)(C)O)nc(N)nc2-c2ccc(F)cc2)cc(C(F)F)n1` [Example 175, 1-(2-(((2-amino-5-(2-(difluoromethyl)-6-methylpyridin-4-yl)-6-(4-fluorophenyl)pyrimidin-4-yl)oxy)methyl)-1H-imidazol-1-yl)-2-methylpropan-2-ol], the IC50 is 15 nM on Adenosine A2A receptor [1] and 19 nM at Adenosine A2A receptor [2] (setting [3]).

Consider `Cc1cc(-c2c(OCc3nccn3CC(C)C)nc(N)nc2-c2ccc(F)cc2)cc(C(F)F)n1` [Example 176, 5-(2-(difluoromethyl)-6-methylpyridin-4-yl)-4-(4-fluorophenyl)-6-((1-isobutyl-1H-imidazol-2-yl)methoxy)pyrimidin-2-amine], for which the IC50 was determined as 3.6 nM on Adenosine A2A receptor [1] and 7.9 nM at Adenosine A2A receptor [2] (setting [3]).

For the compound `Cc1cc(-c2c(OCc3nccn3CC3CC3)nc(N)nc2-c2ccc(F)cc2)cc(C(F)F)n1` [Example 177, 4-((1-(cyclopropylmethyl)-1H-imidazol-2-yl)methoxy)-5-(2-(difluoromethyl)-6-methylpyridin-4-yl)-6-(4-fluorophenyl)pyrimidin-2-amine], the IC50 on Adenosine A2A receptor [1] was 0.2 nM; on Adenosine A2A receptor [2] (setting [3]), 2.6 nM and 2.9 nM; on Adenosine A2A receptor [2] (setting [4]), 271 nM.

As for `Cc1cc(-c2c(OCc3nncn3C(C)C)nc(N)nc2-c2ccc(F)cc2)cc(C(F)F)n1` [Example 178, 5-(2-(difluoromethyl)-6-methylpyridin-4-yl)-4-(4-fluorophenyl)-6-((4-isopropyl-4H-1,2,4-triazol-3-yl)methoxy)pyrimidin-2-amine], the IC50 at Adenosine A2A receptor [1] was 1.4 nM and 3.2 nM; on Adenosine A2A receptor [2] (setting [3]), 1.5 nM.

Take `Cc1cc(-c2c(OCc3ncnn3C(C)C)nc(N)nc2-c2ccc(F)cc2)cc(C(F)F)n1` [Example 179, 5-(2-(difluoromethyl)-6-methylpyridin-4-yl)-4-(4-fluorophenyl)-6-((1-isopropyl-1H-1,2,4-triazol-5-yl)methoxy)pyrimidin-2-amine]: the IC50 on Adenosine A2A receptor [1] was 0.7 nM and 1 nM; at Adenosine A2A receptor [2] (setting [3]), 2.9 nM; on Adenosine A2A receptor [2] (setting [4]), 16 nM and 57 nM.

For the compound `Cc1cc(-c2c(OCc3cnnn3C(C)C)nc(N)nc2-c2ccc(F)cc2)cc(C(F)F)n1` [Example 180, 5-(2-(difluoromethyl)-6-methylpyridin-4-yl)-4-(4-fluorophenyl)-6-((1-isopropyl-1H-1,2,3-triazol-5-yl)methoxy)pyrimidin-2-amine], the values for the IC50 on Adenosine A2A receptor [1] and on Adenosine A2A receptor [2] (setting [3]) were 15 nM and 2.5 nM, respectively.

As to `Cc1cc(-c2c(OCc3n[nH]cc3C(C)C)nc(N)nc2-c2ccc(F)cc2)cc(C(F)F)n1` [Example 183, 5-(2-(difluoromethyl)-6-methylpyridin-4-yl)-4-(4-fluorophenyl)-6-((4-isopropyl-1H-pyrazol-3-yl)methoxy)pyrimidin-2-amine], the IC50 at Adenosine A2A receptor [1] worked out at 46 nM; at Adenosine A2A receptor [2] (setting [3]) it was 12 nM.

Turning to `Cc1cc(-c2c(OCc3nn(C)cc3C(C)C)nc(N)nc2-c2ccc(F)cc2)cc(C(F)F)n1` [Example 184, 5-(2-(difluoromethyl)-6-methylpyridin-4-yl)-4-(4-fluorophenyl)-6-((4-isopropyl-1-methyl-1H-pyrazol-3-yl)methoxy)pyrimidin-2-amine], the IC50 on Adenosine A2A receptor [1] worked out at 33 nM; at Adenosine A2A receptor [2] (setting [3]), 8.8 nM.

Consider `Cc1cc(-c2c(OCc3nnn(C(C)C)n3)nc(N)nc2-c2ccc(F)cc2)cc(C(F)F)n1` [Example 185, 5-(2-(difluoromethyl)-6-methylpyridin-4-yl)-4-(4-fluorophenyl)-6-((2-isopropyl-2H-tetrazol-5-yl)methoxy)pyrimidin-2-amine], for which the IC50 was 7.1 nM at Adenosine A2A receptor [1]; 6 nM and 25 nM at Adenosine A2A receptor [2] (setting [4]).

The record behind these values is patent US20210355104A1, “ADENOSINE RECEPTOR BINDING COMPOUNDS” (Nikang Therapeuticsm Inc., priority 2018, published 2021).
